In brackets after ≈: the same amount, converted by molar mass. Read-outs that look alike come from different tables or passages of the source.
Assays:
E. faecalis ATCC 29212 = assay: In-vitro antibacterial activity, broth microdilution MIC (CLSI); assay type: cell-based; conditions: Enterococcus faecalis, ATCC29212, 35±2° C., 16-20 h, read visually
Procedure: (§1) The in-vitro antibacterial activity of the compounds of the present invention (as described in Table 2) was determined by a broth microdilution following the guidelines prescribed by the Clinical and Laboratory Standards Institute (CLSI). This method is described in the CLSI Document M7-A7, Vol. 26, No. 2, “Methods for Dilution Antimicrobial Susceptibility Test for Bacteria that Grow Aerobically; Approved Standard-Seventh Edition”, which is incorporated herein by reference. Minimum Inhibitory Concentration (MIC) is defined as the minimum concentration of test compound which inhibits the growth of bacteria as visible or seen by the naked eye. This test can also be carried out by agar dilution method.
(§2) The compounds of the present invention were tested against a panel of standard microorganisms obtained from ATCC (American type culture collection), and a Linezolid resistant strain (LRSA) i.e. PTCC 100 (Panacea type culture collection). PTCC 100 is a repository that has been created by Panacea Biotec Ltd. at Mohali, India for storage and maintenance of clinical, bacterial and other isolates developed in-house which are used for testing the test compounds. Linezolid was used as comparator in all the tests.
(§3) In the broth microdilution method, the compound was dissolved in dimethylsulfoxide and two fold serial dilutions were carried out in 96 well microtitre plates. The inoculum was prepared by adjusting the turbidity of actively growing broth culture and added to the wells to obtain a final bacterial count of ˜2-5×10^4 CFU/well. The microtitre plates were incubated at 35±2° C. for 16-20 h and then read visually.

[1] = test system: S. aureus ATCC 29213 (MSSA); assay: as above; assay type: cell-based; conditions: Staphylococcus aureus, 35±2° C., 16-20 h, read visually
Procedure: as §1, §2, §3

[2] = test system: S. aureus ATCC 33591 (MRSA); assay: as above; assay type: cell-based; conditions: Staphylococcus aureus, 35±2° C., 16-20 h, read visually
Procedure: as §1, §2, §3

[3] = test system: E. faecium ATCC 700221 (VRE); assay: as above; assay type: cell-based; conditions: Enterococcus faecium, 35±2° C., 16-20 h, read visually, read-out: MIC E. faecium ATTC 700221 (VRE)
Procedure: as §1, §2, §3

[4] = test system: S. aureus PTCC 100 (LRSA); assay: In-vitro antibacterial activity, broth microdilution MIC against linezolid resistant strain; assay type: cell-based; conditions: Staphylococcus aureus
Procedure: as §1, §2, §3
PTCC 100 was developed by a procedure similar to the one cited in Antimicrobial Agents and Chemotherapy, 2008, 52, 1940. Female Swiss albino mice (18-22gm) bred in-house were inoculated with S. aureus ATCC 29213 strain and dosed orally with Linezolid at 5 mg/kg/p.o, next day mice were sacrificed after 20-22 h and intraperitoneal swab was taken and streaked onto Mueller Hinton Agar plates containing 4 and 8 μg/mL of Linezolid. Colonies obtained on 4 μg/mL and 8 μg/mL were selected from plates and further passaged into mice (SAM), dosed orally with Linezolid at 7.5 mg/kg/p.o. Mice were sacrificed and intraperitoneal swabs were streaked onto plates containing higher linezolid concentration i.e 16 and 32 μg/mL and the process was repeated by incrementally increasing the concentration of Linezolid upto 10 mg/kg/p.o in mice, to finally obtain S. aureus strains resistant to Linezolid at 64 μg/mL.

S. aureus ATCC 29213 = assay: In-vivo efficacy: systemic model of infection in mice; set-up: species or system Staphylococcus aureus; conditions: female Swiss albino mice, i.p. infection, oral dosing at 1 h and 5 h post infection, 50% survival at 7 days
Procedure: Female Swiss albino mice bred in-house were selected in weight range of 19-23 gm (n=6/group). S. aureus ATCC 29213 was grown overnight for 18-20 h, on Columbia Blood Agar (Difco; BD). Next day bacterial inoculum was prepared with optical density (O.D) corresponding to cell density of ˜2˜10^9 CFU/ml and mixed with 10% of gastric mucin (Difco; BD) in ratio of 1:1 to obtain final mucin concentration of 5% w/v. 0.5 mL of bacterial inoculum was injected intraperitoneally (i.p) into all the mice. Compounds obtained in the present invention, hereinafter referred as Test compounds were formulated in 0.25% Carboxymethylcellulose (C.M.C) and Tween 80, at different dose levels and then administered orally at 1 h and 5 h post infection. Linezolid was used as standard control. Saline was administered to the infection control group which received neither the test compound nor the standard drug. […] Numbers of survivors in each group were noted and ED50 of test compound on the basis of 50% survival was calculated through regression analysis.

[5] = PTCC100, read-out: MIC S. aureus PTCC 100 (LRSA)

SMILES: COC(=O)NC[C@H]1CN(c2cc(F)c(N3CCN(C(=O)[C@H](C)NC(=O)c4cccnc4F)CC3)c(F)c2)C(=O)O1 [Compound 197]
- MIC (E. faecalis ATCC 29212): 0.5 µg/mL (≈ 0.886 µM)
- MIC [1]: 1 µg/mL (≈ 1.77 µM)
- MIC [2]: 0.5 µg/mL (≈ 0.886 µM)
- MIC [3]: 0.25 µg/mL (≈ 0.443 µM)

SMILES: COC(=O)NC[C@H]1CN(c2cc(F)c(N3CCN(C(=O)[C@H](C)NC(=O)c4ccc(F)nc4)CC3)c(F)c2)C(=O)O1 [Compound 196]
- MIC (E. faecalis ATCC 29212): 0.5 µg/mL (≈ 0.886 µM)
- MIC [1]: 0.5 µg/mL (≈ 0.886 µM)
- MIC [2]: 0.5 µg/mL (≈ 0.886 µM)
- MIC [3]: 0.25 µg/mL (≈ 0.443 µM)

SMILES: C[C@H](NC(=O)c1cn2cccnc2n1)C(=O)N1CCN(c2c(F)cc(N3C[C@H](CNC(=O)c4ccno4)OC3=O)cc2F)CC1 [Compound 190]
- MIC (E. faecalis ATCC 29212): 0.25 µg/mL (≈ 0.401 µM)
- MIC [1]: 0.25 µg/mL (≈ 0.401 µM)
- MIC [2]: 0.25 µg/mL (≈ 0.401 µM)
- MIC [3]: 0.5 µg/mL (≈ 0.802 µM)

SMILES: COC(=O)NC[C@H]1CN(c2cc(F)c(N3CCN(C(=O)[C@H](CO)NC(=O)c4cn5ccncc5n4)CC3)c(F)c2)C(=O)O1 [Compound 4]
- MIC [4, 5]: 1 µg/mL (≈ 1.66 µM)
- MIC (E. faecalis ATCC 29212): 0.5 µg/mL (≈ 0.83 µM)
- MIC [1]: 0.5 µg/mL (≈ 0.83 µM)
- MIC [2]: 0.5 µg/mL (≈ 0.83 µM)
- MIC [3]: 0.5 µg/mL (≈ 0.83 µM)

SMILES: CC(=O)NC[C@H]1CN(c2cc(F)c(N3CCN(C(=O)CNC(=O)c4cn5ccncc5n4)CC3)c(F)c2)C(=O)O1 [Compound 6]
- MIC [4, 5]: 1 µg/mL (≈ 1.8 µM)
- MIC (E. faecalis ATCC 29212): 0.5 µg/mL (≈ 0.898 µM)
- MIC [1]: 0.5 µg/mL (≈ 0.898 µM)
- MIC [2]: 0.5 µg/mL (≈ 0.898 µM)
- MIC [3]: 0.5 µg/mL (≈ 0.898 µM)

SMILES: COC(=O)NC[C@H]1CN(c2cc(F)c(N3CCN(C(=O)CNC(=O)c4ccc(Cl)nc4)CC3)c(F)c2)C(=O)O1 [Compound 130]
- MIC [4, 5]: 8 µg/mL (≈ 14.1 µM)
- MIC (E. faecalis ATCC 29212): 0.25 µg/mL (≈ 0.441 µM)
- MIC [1]: 0.25 µg/mL (≈ 0.441 µM)
- MIC [2]: 0.25 µg/mL (≈ 0.441 µM)
- MIC [3]: 0.125 µg/mL (≈ 0.22 µM)

SMILES: COC(=O)NC[C@H]1CN(c2ccc(N3CCN(C(=O)CNC(=O)c4cn5ccncc5n4)CC3)c(F)c2)C(=O)O1 [Compound 3]
- MIC [4, 5]: 2 µg/mL (≈ 3.61 µM)
- MIC (E. faecalis ATCC 29212): 0.5 µg/mL (≈ 0.902 µM)
- MIC [1]: 0.5 µg/mL (≈ 0.902 µM)
- MIC [2]: 0.5 µg/mL (≈ 0.902 µM)
- MIC [3]: 0.25 µg/mL (≈ 0.451 µM)

SMILES: COC(=O)NC[C@H]1CN(c2ccc(N3CCCN(C(=O)CNC(=O)c4cn5ccncc5n4)CC3)c(F)c2)C(=O)O1 [Compound 25]
- MIC (E. faecalis ATCC 29212): 1 µg/mL (≈ 1.76 µM)
- MIC [1]: 2 µg/mL (≈ 3.52 µM)
- MIC [2]: 2 µg/mL (≈ 3.52 µM)
- MIC [3]: 1 µg/mL (≈ 1.76 µM)

SMILES: CC(=O)NC[C@H]1CN(c2ccc(N3CCOCC3)c(F)c2)C(=O)O1 [Linezolid, reference compound]
- ED50 values S. aureus ATCC 29213 (S. aureus ATCC 29213): 6.0 mg/kg/p.o.
- MIC [4, 5]: 32 µg/mL (≈ 94.9 µM)
- MIC ([4]; PTCC100, read-out: MIC of isolated colonies (PTCC 100)): 64 µg/mL
- MIC (E. faecalis ATCC 29212): 2 µg/mL (≈ 5.93 µM)
- MIC [1]: 2 µg/mL (≈ 5.93 µM)
- MIC [2]: 1 µg/mL (≈ 2.96 µM)
- MIC [3]: 2 µg/mL (≈ 5.93 µM)

SMILES: CC(=O)NC[C@H]1CN(c2cc(F)c(N3CCN(C(=O)C4(NC(=O)c5cn6ccncc6n5)CCCC4)CC3)c(F)c2)C(=O)O1 [Compound 7]
- MIC (E. faecalis ATCC 29212): 8 µg/mL (≈ 13.1 µM)
- MIC [1]: 32 µg/mL (≈ 52.4 µM)
- MIC [2]: 16 µg/mL (≈ 26.2 µM)
- MIC [3]: 8 µg/mL (≈ 13.1 µM)

SMILES: CC(=O)NC[C@H]1CN(c2cc(F)c(N3CCN(C(=O)[C@H](CC(C)C)NC(=O)c4cn5ccncc5n4)CC3)c(F)c2)C(=O)O1 [Compound 2]
- MIC [4, 5]: 4 µg/mL (≈ 6.53 µM)
- MIC (E. faecalis ATCC 29212): 2 µg/mL (≈ 3.26 µM)
- MIC [1]: 2 µg/mL (≈ 3.26 µM)
- MIC [2]: 2 µg/mL (≈ 3.26 µM)
- MIC [3]: 1 µg/mL (≈ 1.63 µM)

SMILES: COC(=O)NC[C@H]1CN(c2cc(F)c(N3CCN(C(=O)[C@H](C)NC(=O)c4cn5ccncc5n4)CC3)c(F)c2)C(=O)O1 [Compound 5]
- MIC [4, 5]: 1 µg/mL (≈ 1.7 µM)
- MIC (E. faecalis ATCC 29212): 0.5 µg/mL (≈ 0.852 µM)
- MIC [1]: 0.5 µg/mL (≈ 0.852 µM)
- MIC [2]: 0.5 µg/mL (≈ 0.852 µM)
- MIC [3]: 0.5 µg/mL (≈ 0.852 µM)

SMILES: COC(=O)NC[C@H]1CN(c2cc(F)c(N3CCN(C(=O)CNC(=O)c4cn5ccncc5n4)CC3)c(F)c2)C(=O)O1 [Compound 1]
- MIC [4, 5]: 0.25 µg/mL (≈ 0.437 µM)
- MIC (E. faecalis ATCC 29212): 0.5 µg/mL (≈ 0.873 µM)
- MIC [1]: 0.5 µg/mL (≈ 0.873 µM)
- MIC [2]: 0.25 µg/mL (≈ 0.437 µM)
- MIC [3]: 0.25 µg/mL (≈ 0.437 µM)

From US8841306B2, “Antimicrobials” (Panacea Biotec Ltd., priority 2008, dated 2014)
